Experimental findings from article PMC12430708, “Design, Synthesis, and In Vitro and In Silico Study of New Hybrid 1-(2-(4-Arylthiazol-2-yl)hydrazineylidene)-5,6-dihydro-4H-pyrrolo[3,2,1-ij]quinolin-2-ones as Factor Xa and Factor XIa Inhibitors” (Molecules, 2025) are described below.

The structures appear in SMILES notation.

Holding throughout (assay type): biochemical
One assay addresses factor Xa (Homo sapiens, UniProt P00742). Briefly: Inhibition of factor Xa, hydrolysis kinetics of chromogenic substrate S2765. As to conditions: for inhibition at 30 µM / Percent Inhibition at 30 μM ± SEM (n = 3), Xa: 30 μM compound, factor Xa 5 nmol/L, S2765 200 µmol/L, negative values denote percent activation; for inhibition at 30 µM: read-out: Percent Inhibition at 30 μM ± SEM (n = 3), Xa; for IC50: substrate S2765, buffer solution, read-out: IC50, μM ± SEM (n = 3), Xa. From the text: (§1) The inhibition of the blood coagulation factors Xa and XIa or plasmin by the synthesized compounds 5a–o was studied by measuring the kinetics of hydrolysis of substrates specific for each of these enzymes in the presence of the compounds. A specific low-molecular-weight chromogenic substrate S2765 (Z-D-Arg-Gly-Arg-pNA·2HCl) was used in the case of factor Xa, substrate S2366 (pyroGlu-Pro-Arg-pNA·HCl) was used for factor XIa, and S2288 (H-D-Ile-Pro-Arg-pNA·2HCl) was used for plasmin (all from Chromogenix, West Chester, PA, USA). A buffer containing 140 mM NaCl, 20 mM HEPES, and 0.1% PEG 6000 (pH 8.0) was placed in the wells of a 96-well plate, followed by the addition of factor Xa or XIa (final concentration 5 nmol·L^−1) or plasmin (final concentration 10 nmol L^−1); the substrate S2765, S2366, or S2288 (final concentration 200 µmol·L^−1); and a solution of the test compound in DMSO (final concentration 30 µmol·L^−1, the DMSO content in the well was no more than 2%). The kinetics of the formation of p-nitroaniline was measured using an Eppendorf PlateReader AF2200 microplate reader (Eppendorf, Hamburg, Germany) by the absorption of light with a wavelength of 405 nm. The initial rate of substrate degradation was determined from the initial slope of the 4-nitroaniline formation curve.
(§2) The absolute value of negative inhibition values denotes percent activation.
(§3) The data obtained were processed using the GraphPad Prism 8.0.1 (244) and OriginPro 8 software.

The target in a further assay is factor XIa (Homo sapiens, UniProt P03951). The assay is described as follows: Inhibition of factor XIa, hydrolysis kinetics of chromogenic substrate S2366. As to conditions: for inhibition at 30 µM / Percent Inhibition at 30 μM ± SEM (n = 3), XIa: 30 μM compound, factor XIa 5 nmol/L, S2366 200 µmol/L, negative values denote percent activation; for inhibition at 30 µM: read-out: Percent Inhibition at 30 μM ± SEM (n = 3), XIa; for IC50: substrate S2366, buffer solution, read-out: IC50, μM ± SEM (n = 3), XIa.
Excerpt: as §1, §2, §3

In the next assay the target is plasmin (Homo sapiens, UniProt P00747). The assay is described as follows: Inhibition of plasmin, hydrolysis kinetics of chromogenic substrate S2288 (selectivity). The following applies: 30 μM compound, plasmin 10 nmol/L, S2288 200 µmol/L; for inhibition at 30 µM: read-out: Percent Inhibition at 30 μM ± SEM (n = 3), Plasmin.
Excerpt: as §1, §2, §3

Sequence of factor XIa (P03951 388-625 limits assumed): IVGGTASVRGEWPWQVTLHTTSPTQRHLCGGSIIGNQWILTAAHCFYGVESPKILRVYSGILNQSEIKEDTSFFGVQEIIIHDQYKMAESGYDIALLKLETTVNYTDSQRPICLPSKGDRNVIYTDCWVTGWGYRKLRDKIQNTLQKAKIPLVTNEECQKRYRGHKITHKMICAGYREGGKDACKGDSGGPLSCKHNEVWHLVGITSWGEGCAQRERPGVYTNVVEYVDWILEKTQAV
Sequence of factor XIa (P03951 19-387 partner limits assumed): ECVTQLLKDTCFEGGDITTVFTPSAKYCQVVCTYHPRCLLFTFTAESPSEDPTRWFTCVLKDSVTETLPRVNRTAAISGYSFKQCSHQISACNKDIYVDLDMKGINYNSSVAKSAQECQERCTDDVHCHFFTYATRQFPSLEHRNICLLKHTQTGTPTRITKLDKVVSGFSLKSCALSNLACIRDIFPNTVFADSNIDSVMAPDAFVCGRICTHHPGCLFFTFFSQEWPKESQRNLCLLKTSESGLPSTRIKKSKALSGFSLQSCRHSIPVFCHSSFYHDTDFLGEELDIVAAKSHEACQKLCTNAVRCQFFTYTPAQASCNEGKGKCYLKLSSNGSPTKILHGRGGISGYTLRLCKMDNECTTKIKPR
Sequence of factor Xa (P00742 235-488 limits assumed): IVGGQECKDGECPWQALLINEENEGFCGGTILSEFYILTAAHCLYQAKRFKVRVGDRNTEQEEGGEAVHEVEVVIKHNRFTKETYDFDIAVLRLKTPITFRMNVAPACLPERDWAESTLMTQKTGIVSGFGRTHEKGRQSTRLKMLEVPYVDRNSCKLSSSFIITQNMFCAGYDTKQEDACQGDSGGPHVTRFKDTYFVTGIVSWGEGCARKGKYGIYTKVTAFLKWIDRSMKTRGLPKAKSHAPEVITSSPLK
Sequence of factor Xa (P00742 41-179 partner limits assumed): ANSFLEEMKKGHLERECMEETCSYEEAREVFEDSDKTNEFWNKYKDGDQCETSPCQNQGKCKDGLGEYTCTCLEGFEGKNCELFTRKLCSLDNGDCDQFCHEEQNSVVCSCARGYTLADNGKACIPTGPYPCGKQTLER
Sequence of plasmin (P00747 581-810 limits assumed, species assumed): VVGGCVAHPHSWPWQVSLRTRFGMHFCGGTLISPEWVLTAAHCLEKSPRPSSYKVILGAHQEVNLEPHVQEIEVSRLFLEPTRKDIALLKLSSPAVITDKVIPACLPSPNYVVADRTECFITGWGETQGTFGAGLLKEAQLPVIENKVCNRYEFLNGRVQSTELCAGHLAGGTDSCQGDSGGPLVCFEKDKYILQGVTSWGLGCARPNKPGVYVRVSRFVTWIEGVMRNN
Sequence of plasmin (P00747 97-580 partner limits assumed, species assumed): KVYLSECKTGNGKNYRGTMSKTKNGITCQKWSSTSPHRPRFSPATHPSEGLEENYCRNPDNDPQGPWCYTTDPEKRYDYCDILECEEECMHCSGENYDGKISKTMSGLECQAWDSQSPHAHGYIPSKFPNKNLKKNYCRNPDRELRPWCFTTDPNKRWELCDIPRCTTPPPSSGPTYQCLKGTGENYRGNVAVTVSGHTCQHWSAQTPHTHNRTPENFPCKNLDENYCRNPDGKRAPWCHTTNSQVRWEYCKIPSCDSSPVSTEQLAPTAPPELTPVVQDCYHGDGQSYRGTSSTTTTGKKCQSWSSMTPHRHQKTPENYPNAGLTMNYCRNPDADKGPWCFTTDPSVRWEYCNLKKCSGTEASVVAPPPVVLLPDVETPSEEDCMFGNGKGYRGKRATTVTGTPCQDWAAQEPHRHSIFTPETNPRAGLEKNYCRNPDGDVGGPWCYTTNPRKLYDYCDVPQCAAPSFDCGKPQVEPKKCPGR

For orientation: inhibition means the relative decrease from the control value, in per cent. Take `COc1cccc(-c2csc(N/N=C3\C(=O)N4c5c3cc(F)cc5C(C)(c3ccc(Cl)cc3)CC4(C)C)n2)c1` (stereo not drawn) [5n, (Z)-6-(4-Chlorophenyl)-8-fluoro-1-(2-(4-(3-methoxyphenyl)thiazol-2-yl)hydrazineylidene)-4,4,6-trimethyl-5,6-dihydro-4H-pyrrolo[3,2,1-ij]quinolin-2(1H)-one]: the inhibition at 30 µM is -2 ± 3% on factor Xa and -19 ± 8% at factor XIa.

As to `COc1ccc(-c2csc(N/N=C3\C(=O)N4c5c3cccc5C(C)(c3ccc(Cl)cc3)CC4(C)C)n2)cc1` (stereo not drawn) [5i, (Z)-6-(4-Chlorophenyl)-1-(2-(4-(4-methoxyphenyl)thiazol-2-yl)hydrazineylidene)-4,4,6-trimethyl-5,6-dihydro-4H-pyrrolo[3,2,1-ij]quinolin-2(1H)-one], the inhibition at 30 µM on factor Xa was -21 ± 9%; at factor XIa it was -14 ± 10%.

With `COc1cccc(-c2csc(N/N=C3\C(=O)N4c5c3cc(F)cc5C(C)CC4(C)C)n2)c1` (stereo not drawn) [5f, (Z)-8-Fluoro-1-(2-(4-(3-methoxyphenyl)thiazol-2-yl)hydrazineylidene)-4,4,6-trimethyl-5,6-dihydro-4H-pyrrolo[3,2,1-ij]quinolin-2(1H)-one], the inhibition at 30 µM at factor Xa is -25 ± 9%; at factor XIa, -11 ± 9%.

As to `COc1cc2c3c(c1)C(C)CC(C)(C)N3C(=O)/C2=N\Nc1nc(-c2ccc(Br)cc2)cs1` (stereo not drawn) [5c, (Z)-1-(2-(4-(4-Bromophenyl)thiazol-2-yl)hydrazineylidene)-8-methoxy-4,4,6-trimethyl-5,6-dihydro-4H-pyrrolo[3,2,1-ij]quinolin-2(1H)-one], the inhibition at 30 µM on factor Xa is -40 ± 10%; at factor XIa, -7 ± 8%.

As for `CC1(c2ccc(Cl)cc2)CC(C)(C)N2C(=O)/C(=N\Nc3nc(-c4ccccc4)cs3)c3cc(Br)cc1c32` (stereo not drawn) [5o, (Z)-8-Bromo-6-(4-chlorophenyl)-4,4,6-trimethyl-1-(2-(4-phenylthiazol-2-yl)hydrazineylidene)-5,6-dihydro-4H-pyrrolo[3,2,1-ij]quinolin-2(1H)-one], the inhibition at 30 µM on factor Xa was -4 ± 6%; on factor XIa, -11 ± 12%.

For the compound `CC1(c2ccccc2)CC(C)(C)N2C(=O)/C(=N\Nc3nc(-c4ccc(Cl)cc4)cs3)c3cc(F)cc1c32` (stereo not drawn) [5g, (Z)-1-(2-(4-(4-Chlorophenyl)thiazol-2-yl)hydrazineylidene)-8-fluoro-4,4,6-trimethyl-6-phenyl-5,6-dihydro-4H-pyrrolo[3,2,1-ij]quinolin-2(1H)-one], the inhibition at 30 µM is 51 ± 18% on factor Xa and 76 ± 3% on factor XIa.

As usually defined, the IC50 is the point on the concentration scale where inhibition reaches its midpoint. For `CC1CC(C)(C)N2C(=O)/C(=N\Nc3nc(-c4ccc(F)cc4)cs3)c3cc(Cl)cc1c32` (stereo not drawn) [5d, (Z)-8-Chloro-1-(2-(4-(4-fluorophenyl)thiazol-2-yl)hydrazineylidene)-4,4,6-trimethyl-5,6-dihydro-4H-pyrrolo[3,2,1-ij]quinolin-2(1H)-one], on factor Xa, the “Percent Inhibition at 30 μM ± SEM (n = 3), Xa” value amounted to 98 ± 1%; the inhibition at 30 µM fell in the range of 98 to 100%; the IC50 is 5.43 ± 0.02 µM. For the same compound, at factor XIa, the “Percent Inhibition at 30 μM ± SEM (n = 3), XIa” value was 99%; the inhibition at 30 µM was in the range of 98 to 100%; the IC50 stood at 7.7 ± 0.05 µM. In addition, at plasmin, the “Percent Inhibition at 30 μM ± SEM (n = 3), Plasmin” value is 5 ± 1% and the inhibition at 30 µM is under 10%.

Consider `COc1ccc(-c2csc(N/N=C3\C(=O)N4c5c3cc(Cl)cc5C(C)CC4(C)C)n2)cc1` (stereo not drawn) [5e, (Z)-8-Chloro-1-(2-(4-(4-methoxyphenyl)thiazol-2-yl)hydrazineylidene)-4,4,6-trimethyl-5,6-dihydro-4H-pyrrolo[3,2,1-ij]quinolin-2(1H)-one], for which the results for the inhibition at 30 µM at factor Xa and at factor XIa were -8 ± 10% and -2 ± 11%, respectively.

As to `CC1(c2ccc(Cl)cc2)CC(C)(C)N2C(=O)/C(=N\Nc3nc(-c4cccc(Cl)c4)cs3)c3cc(F)cc1c32` (stereo not drawn) [5m, (Z)-6-(4-Chlorophenyl)-1-(2-(4-(3-chlorophenyl)thiazol-2-yl)hydrazineylidene)-8-fluoro-4,4,6-trimethyl-5,6-dihydro-4H-pyrrolo[3,2,1-ij]quinolin-2(1H)-one], the results for the inhibition at 30 µM at factor Xa and on factor XIa were -17 ± 11% and -14 ± 7%, respectively.

With `COc1cc2c3c(c1)C(C)CC(C)(C)N3C(=O)/C2=N\Nc1nc(-c2ccc(F)cc2)cs1` (stereo not drawn) [5b, (Z)-1-(2-(4-(4-Fluorophenyl)thiazol-2-yl)hydrazineylidene)-8-methoxy-4,4,6-trimethyl-5,6-dihydro-4H-pyrrolo[3,2,1-ij]quinolin-2(1H)-one], the inhibition at 30 µM on factor Xa is -30 ± 10%; at factor XIa, -6 ± 10%.

`COc1ccc(-c2csc(N/N=C3\C(=O)N4c5c3cc(Cl)cc5C(C)(c3ccc(Cl)cc3)CC4(C)C)n2)cc1` (stereo not drawn) [5j, (Z)-8-Chloro-6-(4-chlorophenyl)-1-(2-(4-(4-methoxyphenyl)thiazol-2-yl)hydrazineylidene)-4,4,6-trimethyl-5,6-dihydro-4H-pyrrolo[3,2,1-ij]quinolin-2(1H)-one]: the inhibition at 30 µM on factor Xa was -3 ± 3%; at factor XIa it was -3 ± 6%.

Regarding `CC1(c2ccc(Cl)cc2)CC(C)(C)N2C(=O)/C(=N\Nc3nc(-c4ccc(F)cc4)cs3)c3cc(F)cc1c32` (stereo not drawn) [5l, (Z)-6-(4-Chlorophenyl)-8-fluoro-1-(2-(4-(4-fluorophenyl)thiazol-2-yl)hydrazineylidene)-4,4,6-trimethyl-5,6-dihydro-4H-pyrrolo[3,2,1-ij]quinolin-2(1H)-one], the inhibition at 30 µM is -4 ± 3% at factor Xa and -11 ± 7% on factor XIa.

Turning to `CC1(c2ccc(Cl)cc2)CC(C)(C)N2C(=O)/C(=N\Nc3nc(-c4ccc(Cl)cc4)cs3)c3cc(F)cc1c32` (stereo not drawn) [5k, (Z)-6-(4-Chlorophenyl)-1-(2-(4-(4-chlorophenyl)thiazol-2-yl)hydrazineylidene)-8-fluoro-4,4,6-trimethyl-5,6-dihydro-4H-pyrrolo[3,2,1-ij]quinolin-2(1H)-one], the inhibition at 30 µM was -12 ± 11% at factor Xa and 37 ± 8% on factor XIa.

In the case of `CC1(c2ccccc2)CC(C)(C)N2C(=O)/C(=N\Nc3nc(-c4ccc(Cl)cc4)cs3)c3cc(Br)cc1c32` (stereo not drawn) [5h, (Z)-8-Bromo-1-(2-(4-(4-chlorophenyl)thiazol-2-yl)hydrazineylidene)-4,4,6-trimethyl-6-phenyl-5,6-dihydro-4H-pyrrolo[3,2,1-ij]quinolin-2(1H)-one], at factor Xa, the “Percent Inhibition at 30 μM ± SEM (n = 3), Xa” value was 99 ± 1%; the inhibition at 30 µM fell in the range of 98 to 100%; the IC50 was 5.75 ± 0.02 µM. Moreover, on factor XIa, the “Percent Inhibition at 30 μM ± SEM (n = 3), XIa” value came to 100%; the inhibition at 30 µM was in the range of 98 to 100%; the IC50 came to 7.66 ± 0.08 µM. For the same compound, on plasmin, the “Percent Inhibition at 30 μM ± SEM (n = 3), Plasmin” value worked out at 8 ± 2% and the inhibition at 30 µM is under 10%.

As for `COc1cc2c3c(c1)C(C)CC(C)(C)N3C(=O)/C2=N\Nc1nc(-c2ccc(Cl)cc2)cs1` (stereo not drawn) [5a, (Z)-1-(2-(4-(4-Chlorophenyl)thiazol-2-yl)hydrazineylidene)-8-methoxy-4,4,6-trimethyl-5,6-dihydro-4H-pyrrolo[3,2,1-ij]quinolin-2(1H)-one], the values for the inhibition at 30 µM on factor Xa and at factor XIa were -30 ± 7% and -13 ± 11%, respectively.
